Positions of bridges follow the written chain, without caps; N, C: chain ends. No end group written: not given here.
Columns and labels:
[1] = tested on: rASIC1a: rASIC1b chimera C166; assay: TEVC oocytes, rASIC1a: rASIC1b chimera C166; format: cell-based, rat; settings: conditioning pH 7.45, stimulating pH 5
Description: (§1) Two-electrode voltage-clamp (TEVC) experiments using Xenopus laevis oocytes were conducted as previously described. Briefly, oocytes were surgically removed from anaesthetised female frogs, then treated with collagenase (~ 1 mg/ml, Sigma type I) for 2 h under agitation at room temperature. cRNAs were synthesised using a mMessage mMachine T7 or SP6 transcription kit (Thermo Fisher Scientific Australia Pty Ltd, Scoresby, VIC, Australia) and injected into healthy stage V–VI oocytes at 0.2–20 ng per cell. […] Membrane currents were recorded 2–7 days after cRNA-injection under voltage-clamp at -60 mV (Axon Axoclamp 900 A, Molecular Devices, CA, USA) using two standard glass microelectrodes of 0.5–1 MΩ resistance when filled with 3 M KCl solution. […]
(§2) Specific to this work, the standard protocol was for oocytes to be conditioned at pH 7.45 and channels stimulated every 60 s using a 5 s pH 5 or 6 application, unless stated otherwise. […] Activation curves were determined by conditioning oocytes at pH 8 (Fig. 2e − g; and Fig. 5a and b) or 7.45 (Fig. 6; and Supplementary Fig. 2d and c) for 55 s and applying low pH stimuli from 7.25 to 5.0 for 5 s. Steady-state desensitisation (SSD) was determined by applying conditioning solutions of pH values from 8 to 6 for 115 s prior to stimulation by a pH drop to 5 for 5 s. […] Control pH-dependence curves were determined in the absence of any Ma-3. […]

rASIC1a N291A = assay: TEVC oocytes, rASIC1a N291A mutant; format: cell-based, rat; settings: concentration-response, conditioning pH 7.45, stimulating pH 6
Description: as §1, §2

rASIC1b C208Q = biological target: T1, rASIC1b C208Q (Rattus norvegicus, UniProt P55926, C208Q); assay: TEVC oocytes, rASIC1b C208Q mutant; format: cell-based
T1 construct: expressed in transfected cells; host or cells: Xenopus laevis oocytes (cRNA injection)
T1 sequence (P55926 1-559 isoform P55926-3 C208Q): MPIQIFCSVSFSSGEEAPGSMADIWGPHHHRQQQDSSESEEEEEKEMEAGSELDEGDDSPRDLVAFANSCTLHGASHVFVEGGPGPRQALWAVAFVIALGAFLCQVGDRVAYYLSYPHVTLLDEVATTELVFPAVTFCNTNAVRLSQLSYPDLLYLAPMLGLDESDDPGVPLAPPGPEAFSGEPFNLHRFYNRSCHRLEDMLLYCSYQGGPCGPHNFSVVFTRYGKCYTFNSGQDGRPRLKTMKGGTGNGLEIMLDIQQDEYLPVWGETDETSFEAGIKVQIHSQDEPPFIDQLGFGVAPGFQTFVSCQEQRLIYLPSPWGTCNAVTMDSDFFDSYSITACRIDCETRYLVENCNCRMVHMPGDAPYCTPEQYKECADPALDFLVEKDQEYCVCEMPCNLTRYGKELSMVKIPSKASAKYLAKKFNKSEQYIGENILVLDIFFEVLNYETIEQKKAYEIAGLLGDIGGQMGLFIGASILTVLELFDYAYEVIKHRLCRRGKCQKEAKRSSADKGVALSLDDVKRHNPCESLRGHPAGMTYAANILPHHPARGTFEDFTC
Description: as §1, §2

Q: Which “activity of 300 nM Ma-3” value [1] does the source give for “H-SLKCYQHGKVVTCHRDMKFCYHNIGMPFRNLKLILQGCSSSCSETENNKCCSTDRCNK (disulfide 4-20, 13-38, 42-50, 51-56 (inferred)) [Ma-3, mambalgin-3]” here?
A: Its value is “inhibited a greater proportion of current”.

Q: What about the “effect of channel mutation on Ma-3 potency” value (rASIC1a N291A) of the same substance?
A: Its value is “had no effect on potency”.

Q: What about the “pH50 of activation in presence of Ma-3” value (rASIC1b C208Q; 300 nM Ma-3, conditioning pH 7.45, Hill fit, n = 5–6) of the same substance?
A: The value was 6.27.

Q: What about the “Hill slope (95% CI)” value (rASIC1b C208Q; conditioning pH 7.45, pH 6 evoked currents, potentiation, 95% CI) of the same substance?
A: Its value is 1.26–2.01.

Reference: article PMC11335189, “Revealing molecular determinants governing mambalgin-3 pharmacology at acid-sensing ion channel 1 variants” (Cellular and Molecular Life Sciences: CMLS, 2024)
